Measured values from PMC5218480 (PLoS ONE, 2017).

Test system: MV-4-11 cells
Test: Gene expression microarray analysis (Affymetrix PrimeView) and GSEA
Assay type: cell-based, human
Design: RFU PODN (11730768_x_at) / Fold change /veh PODN (11730768_x_at) / RFU LINC00158 (11744669_a_at) / Fold change /veh LINC00158 (11744669_a_at) / RFU DUSP10 (11751237_a_at) / Fold change /veh DUSP10 (11751237_a_at) / RFU ID3 (11757404_x_at) / Fold change /veh ID3 (11757404_x_at) / RFU PLEKHG5 (11737974_s_at) / Fold change /veh PLEKHG5 (11737974_s_at) / RFU LRRC4B (11730491_at) / Fold change /veh LRRC4B (11730491_at) / RFU GIMAP4 (11747438_a_at) / Fold change /veh GIMAP4 (11747438_a_at) / RFU KRT8 (11758183_x_at) / Fold change /veh KRT8 (11758183_x_at) / RFU CNN1 (11734310_a_at) / Fold change /veh CNN1 (11734310_a_at) / RFU VPS37D (11726825_at) / Fold change /veh VPS37D (11726825_at) / RFU C10orf10 (11716522_x_at) / Fold change /veh C10orf10 (11716522_x_at) / RFU KIR2DL2 /// KIR2DL4 /// KIR2DL5A /// KIR2DL5B /// KIR2DS1 /// KIR2DS2 /// KIR2DS3 /// KIR2DS4 /// KIR3DL3 /// KIR3DL3 /// KIR3DS1 (11738374_at) / Fold change /veh KIR2DL2 /// KIR2DL4 /// KIR2DL5A /// KIR2DL5B /// KIR2DS1 /// KIR2DS2 /// KIR2DS3 /// KIR2DS4 /// KIR3DL3 /// KIR3DL3 /// KIR3DS1 (11738374_at) / RFU C1QL1 (11718748_at) / Fold change /veh C1QL1 (11718748_at) / RFU TMPRSS4 (11747572_a_at) / Fold change /veh TMPRSS4 (11747572_a_at) / RFU HAMP (11756126_x_at) / Fold change /veh HAMP (11756126_x_at) / RFU RNFT2 (11725882_a_at) / Fold change /veh RNFT2 (11725882_a_at) / RFU NR4A2 (11747474_a_at) / Fold change /veh NR4A2 (11747474_a_at) / RFU ABCC12 (11746883_a_at) / Fold change /veh ABCC12 (11746883_a_at) / RFU TMEM136 (11760407_x_at) / Fold change /veh TMEM136 (11760407_x_at) / RFU CLDN22 /// WWC2 (11732394_at) / Fold change /veh CLDN22 /// WWC2 (11732394_at) / RFU HLA-DPB1 (11760878_x_at) / Fold change /veh HLA-DPB1 (11760878_x_at) / RFU SPINT1 (11716480_a_at) / Fold change /veh SPINT1 (11716480_a_at) / RFU GAP43 (11754022_s_at) / Fold change /veh GAP43 (11754022_s_at) / RFU A4GNT (11735810_at) / Fold change /veh A4GNT (11735810_at) / RFU PRB3 (11715151_x_at) / Fold change /veh PRB3 (11715151_x_at) / RFU TUBB4B (11761932_at) / Fold change /veh TUBB4B (11761932_at) / RFU CAPN14 (11732068_a_at) / Fold change /veh CAPN14 (11732068_a_at) / RFU TMCC2 (11721928_a_at) / Fold change /veh TMCC2 (11721928_a_at) / RFU IRGQ (11745062_a_at) / Fold change /veh IRGQ (11745062_a_at) / RFU FAM174B (11720279_a_at) / Fold change /veh FAM174B (11720279_a_at) / RFU TMPRSS4 (11748680_a_at) / Fold change /veh TMPRSS4 (11748680_a_at) / RFU FAM212B (11763350_a_at) / Fold change /veh FAM212B (11763350_a_at) / RFU PLEKHG5 (11743358_a_at) / Fold change /veh PLEKHG5 (11743358_a_at) / RFU ZSCAN30 (11745921_a_at) / Fold change /veh ZSCAN30 (11745921_a_at) / RFU CMKLR1 (11741424_a_at) / Fold change /veh CMKLR1 (11741424_a_at) / RFU LOC101060620 /// MAPK8IP1 (11723275_at) / Fold change /veh LOC101060620 /// MAPK8IP1 (11723275_at) / RFU SPTSSB (11747773_x_at) / Fold change /veh SPTSSB (11747773_x_at) / RFU PRSS12 (11739890_at) / Fold change /veh PRSS12 (11739890_at) / RFU BIN1 (11741810_x_at) / Fold change /veh BIN1 (11741810_x_at) / RFU WNT11 (11732464_a_at) / Fold change /veh WNT11 (11732464_a_at) / RFU C10orf10 (11716521_a_at) / Fold change /veh C10orf10 (11716521_a_at) / RFU C5orf56 (11738089_at) / Fold change /veh C5orf56 (11738089_at) / RFU CYB561 (11721691_x_at) / Fold change /veh CYB561 (11721691_x_at) / RFU ANKRD19P (11752326_a_at) / Fold change /veh ANKRD19P (11752326_a_at) / RFU OR2T12 /// OR2T33 /// OR2T8 (11738714_s_at) / Fold change /veh OR2T12 /// OR2T33 /// OR2T8 (11738714_s_at) / RFU VCAN (11748164_a_at) / Fold change /veh VCAN (11748164_a_at) / RFU JSRP1 (11732532_at) / Fold change /veh JSRP1 (11732532_at) / RFU KRTAP10-11 (11738290_x_at) / Fold change /veh KRTAP10-11 (11738290_x_at) / RFU MYO3A (11730013_a_at) / Fold change /veh MYO3A (11730013_a_at) / RFU EBF3 (11725865_a_at) / Fold change /veh EBF3 (11725865_a_at) / RFU CAMK2N1 (11719241_x_at) / Fold change /veh CAMK2N1 (11719241_x_at) / RFU C5orf56 (11738088_a_at) / Fold change /veh C5orf56 (11738088_a_at) / RFU OLFML3 (11715873_a_at) / Fold change /veh OLFML3 (11715873_a_at) / RFU LOC100653217 /// NTM (11731650_a_at) / Fold change /veh LOC100653217 /// NTM (11731650_a_at) / RFU MAPK11 (11762145_a_at) / Fold change /veh MAPK11 (11762145_a_at) / RFU FIZ1 (11724087_x_at) / Fold change /veh FIZ1 (11724087_x_at) / RFU OASL (11726364_x_at) / Fold change /veh OASL (11726364_x_at) / RFU SOX15 (11748057_x_at) / Fold change /veh SOX15 (11748057_x_at) / RFU CD79A (11719716_a_at) / Fold change /veh CD79A (11719716_a_at) / RFU HIST1H1D (11736915_at) / Fold change /veh HIST1H1D (11736915_at) / RFU CASKIN2 (11723855_a_at) / Fold change /veh CASKIN2 (11723855_a_at) / RFU LOC730098 (11760151_x_at) / Fold change /veh LOC730098 (11760151_x_at) / RFU OR4N2 (11742367_at) / Fold change /veh OR4N2 (11742367_at) / RFU PRRT2 (11749266_a_at) / Fold change /veh PRRT2 (11749266_a_at) / RFU SNX32 (11753110_a_at) / Fold change /veh SNX32 (11753110_a_at) / RFU CDHR5 (11726645_a_at) / Fold change /veh CDHR5 (11726645_a_at) / RFU RCAN1 (11760418_a_at) / Fold change /veh RCAN1 (11760418_a_at) / RFU FAM167A (11723789_a_at) / Fold change /veh FAM167A (11723789_a_at) / RFU FAM26E (11764081_at) / Fold change /veh FAM26E (11764081_at) / RFU ISYNA1 (11749810_s_at) / Fold change /veh ISYNA1 (11749810_s_at) / RFU ACY1 (11761880_at) / Fold change /veh ACY1 (11761880_at) / RFU 11764098_at / Fold change /veh 11764098_at / RFU SAMD14 (11745864_x_at) / Fold change /veh SAMD14 (11745864_x_at) / RFU NPB (11741838_a_at) / Fold change /veh NPB (11741838_a_at) / RFU TMPRSS6 (11731388_a_at) / Fold change /veh TMPRSS6 (11731388_a_at) / RFU KRTAP10-2 (11738614_at) / Fold change /veh KRTAP10-2 (11738614_at) / RFU ARHGAP8 /// PRR5-ARHGAP8 (11727945_x_at) / Fold change /veh ARHGAP8 /// PRR5-ARHGAP8 (11727945_x_at) / RFU KRTAP5-7 /// NADSYN1 (11734609_at) / Fold change /veh KRTAP5-7 /// NADSYN1 (11734609_at) / RFU RASL12 (11751679_a_at) / Fold change /veh RASL12 (11751679_a_at) / RFU CDKN2B (11736163_a_at) / Fold change /veh CDKN2B (11736163_a_at) / RFU PRF1 (11729649_at) / Fold change /veh PRF1 (11729649_at) / RFU, ZNF638 /// ZNF638-IT1 / Fold change vs veh, ZNF638 /// ZNF638-IT1 / RFU, PANK3 / Fold change vs veh, PANK3 / RFU, SH3YL1 / Fold change vs veh, SH3YL1 / RFU, ZEB2 / Fold change vs veh, ZEB2 / RFU, NRIP1 / Fold change vs veh, NRIP1 / RFU, PTTG1IP / Fold change vs veh, PTTG1IP / RFU, CAPN2 / Fold change vs veh, CAPN2 / RFU, MED14 / Fold change vs veh, MED14 / RFU, SNORA58 / Fold change vs veh, SNORA58 / RFU, C1orf63 / Fold change vs veh, C1orf63 / RFU, LRRFIP1 / Fold change vs veh, LRRFIP1 / RFU, NDUFAF7 / Fold change vs veh, NDUFAF7 / RFU, SLC12A2 / Fold change vs veh, SLC12A2 / RFU, IBTK / Fold change vs veh, IBTK / RFU, ESF1 / Fold change vs veh, ESF1 / Fold change vs veh, TMEM50B / RFU, TAOK1 / Fold change vs veh, TAOK1 / RFU, ACBD3 / Fold change vs veh, ACBD3 / RFU, TMA16 / Fold change vs veh, TMA16 / RFU, RWDD3 / Fold change vs veh, RWDD3 / RFU, BCAT1 / Fold change vs veh, BCAT1 / RFU, EDEM3 / Fold change vs veh, EDEM3 / RFU, TMEM33 / Fold change vs veh, TMEM33 / RFU, WDR75 / Fold change vs veh, WDR75 / RFU, AHCTF1 / Fold change vs veh, AHCTF1 / RFU, TFRC / Fold change vs veh, TFRC / RFU, ZDHHC17 / Fold change vs veh, ZDHHC17 / RFU, NOM1 / Fold change vs veh, NOM1 / RFU, ARL8B / Fold change vs veh, ARL8B / RFU, ZBTB11 / Fold change vs veh, ZBTB11 / RFU, TAMM41 / Fold change vs veh, TAMM41 / RFU, KIAA1704 /// LOC100996395 / Fold change vs veh, KIAA1704 /// LOC100996395 / RFU, ING1 / Fold change vs veh, ING1 / RFU, TRMT61B / Fold change vs veh, TRMT61B / RFU, FUBP3 / Fold change vs veh, FUBP3 / RFU, TP53 / Fold change vs veh, TP53 / RFU, TNKS2 / Fold change vs veh, TNKS2 / RFU, ZFP14 / Fold change vs veh, ZFP14 / RFU, ACTR2 / Fold change vs veh, ACTR2 / RFU, PPP3R1 / Fold change vs veh, PPP3R1 / RFU, PIK3R1 / Fold change vs veh, PIK3R1 / RFU, HNRNPA1 / Fold change vs veh, HNRNPA1 / RFU, RNF170 / Fold change vs veh, RNF170 / RFU, ZNF28 / Fold change vs veh, ZNF28 / RFU, RNGTT / Fold change vs veh, RNGTT / RFU, OGT / Fold change vs veh, OGT / RFU, BRD1 / Fold change vs veh, BRD1 / RFU, MARS / Fold change vs veh, MARS / RFU, ZNF655 / Fold change vs veh, ZNF655 / RFU, FAHD1 / Fold change vs veh, FAHD1 / RFU, BDP1 / Fold change vs veh, BDP1 / RFU, LRRCC1 / Fold change vs veh, LRRCC1 / RFU, ARID1A / Fold change vs veh, ARID1A / RFU, ZNF146 / Fold change vs veh, ZNF146 / RFU, ZNF330 / Fold change vs veh, ZNF330 / RFU, GPN3 / Fold change vs veh, GPN3 / RFU, C9orf123 / Fold change vs veh, C9orf123 / RFU, N4BP2L2 / Fold change vs veh, N4BP2L2 / RFU, ARFIP1 / Fold change vs veh, ARFIP1 / RFU, FAM179B / Fold change vs veh, FAM179B / RFU, BCL10 / Fold change vs veh, BCL10 / RFU, UHRF1BP1L / Fold change vs veh, UHRF1BP1L / RFU, BET1 / Fold change vs veh, BET1 / RFU, CNOT2 / Fold change vs veh, CNOT2 / RFU, ZNF268 / Fold change vs veh, ZNF268 / Fold change vs veh, ZNF507 / RFU, DGCR2 / Fold change vs veh, DGCR2 / RFU, WDSUB1 / Fold change vs veh, WDSUB1 / Fold change vs veh, HSP90B1 /// MIR3652 / RFU, ADSS / Fold change vs veh, ADSS / RFU, GK / Fold change vs veh, GK / RFU, ZNF148 / Fold change vs veh, ZNF148 / RFU, TAF9 / Fold change vs veh, TAF9 / RFU, SLC1A5 / Fold change vs veh, SLC1A5 / RFU, SLMO2 / Fold change vs veh, SLMO2 / RFU, ABCC4 / Fold change vs veh, ABCC4 / RFU, LOC101060439 /// RAP1B / Fold change vs veh, LOC101060439 /// RAP1B / RFU, RFX7 / Fold change vs veh, RFX7 / RFU, GTPBP10 / Fold change vs veh, GTPBP10 / RFU, CNEP1R1 / Fold change vs veh, CNEP1R1 / RFU, BIVM-ERCC5 /// ERCC5 / Fold change vs veh, BIVM-ERCC5 /// ERCC5 / RFU, ILF3 / Fold change vs veh, ILF3 / RFU 11762660_at / Fold change /veh 11762660_at / RFU VCAN (11757783_s_at) / Fold change /veh VCAN (11757783_s_at) / RFU DDX43 (11728927_at) / Fold change /veh DDX43 (11728927_at) / RFU KRT8 (11758188_x_at) / Fold change /veh KRT8 (11758188_x_at) / RFU NKD1 (11759106_at) / Fold change /veh NKD1 (11759106_at) / RFU SRD5A1 (11742802_a_at) / Fold change /veh SRD5A1 (11742802_a_at) / RFU TPSAB1 /// TPSB2 (11721975_s_at) / Fold change /veh TPSAB1 /// TPSB2 (11721975_s_at) / RFU GSTM3 (11746129_a_at) / Fold change /veh GSTM3 (11746129_a_at) / RFU IL23R (11737362_x_at) / Fold change /veh IL23R (11737362_x_at) / RFU TMEM51 (11727254_a_at) / Fold change /veh TMEM51 (11727254_a_at) / RFU PIWIL2 (11732686_x_at) / Fold change /veh PIWIL2 (11732686_x_at) / RFU ORM1 (11744905_x_at) / Fold change /veh ORM1 (11744905_x_at) / RFU CCDC152 (11743942_at) / Fold change /veh CCDC152 (11743942_at) / RFU ECM1 (11717891_a_at) / Fold change /veh ECM1 (11717891_a_at) / RFU IL23R (11748794_a_at) / Fold change /veh IL23R (11748794_a_at) / RFU TNFAIP8L3 (11732012_x_at) / Fold change /veh TNFAIP8L3 (11732012_x_at) / RFU MBOAT4 (11741988_at) / Fold change /veh MBOAT4 (11741988_at) / RFU 11764193_at / Fold change /veh 11764193_at / RFU TMEM53 (11763286_at) / Fold change /veh TMEM53 (11763286_at) / RFU MAGEB2 (11727129_at) / Fold change /veh MAGEB2 (11727129_at) / RFU TMEM200A (11744735_a_at) / Fold change /veh TMEM200A (11744735_a_at) / RFU CCDC152 (11751479_a_at) / Fold change /veh CCDC152 (11751479_a_at) / RFU FAM211A (11726209_a_at) / Fold change /veh FAM211A (11726209_a_at) / RFU RGS16 (11746705_a_at) / Fold change /veh RGS16 (11746705_a_at) / RFU VCAN (11755009_s_at) / Fold change /veh VCAN (11755009_s_at) / RFU RHOB (11743442_s_at) / Fold change /veh RHOB (11743442_s_at) / RFU RGS16 (11720943_a_at) / Fold change /veh RGS16 (11720943_a_at) / RFU RGS16 (11720944_at) / Fold change /veh RGS16 (11720944_at) / RFU, VPS4B / Fold change vs veh, VPS4B / RFU, CREB1 / Fold change vs veh, CREB1 / RFU, DNAJC13 / Fold change vs veh, DNAJC13 / RFU, GNAQ / Fold change vs veh, GNAQ / RFU, CDK5R1 / Fold change vs veh, CDK5R1 / RFU, ZRANB3 / Fold change vs veh, ZRANB3 / RFU, CUL4A / Fold change vs veh, CUL4A / RFU, CCNY / Fold change vs veh, CCNY / RFU, UFL1 / Fold change vs veh, UFL1 / RFU, COG3 / Fold change vs veh, COG3 / RFU, DIAPH2 / Fold change vs veh, DIAPH2 / RFU, SKA2 / Fold change vs veh, SKA2 / RFU, AFF3 / Fold change vs veh, AFF3 / RFU, LMF1 / Fold change vs veh, LMF1 / RFU, IPO11 / Fold change vs veh, IPO11 / RFU, DFFB / Fold change vs veh, DFFB / RFU, FOXP1 / Fold change vs veh, FOXP1 / RFU, CARD8 / Fold change vs veh, CARD8 / RFU, STRN3 / Fold change vs veh, STRN3 / RFU, ADK / Fold change vs veh, ADK / RFU, RASSF2 / Fold change vs veh, RASSF2 / RFU, WIPF1 / Fold change vs veh, WIPF1 / RFU, LARP1B / Fold change vs veh, LARP1B / RFU, RASA1 / Fold change vs veh, RASA1 / RFU, RB1 / Fold change vs veh, RB1 / RFU, PPFIA1 / Fold change vs veh, PPFIA1 / RFU, MAT2A / Fold change vs veh, MAT2A / RFU, CCT5 / Fold change vs veh, CCT5 / RFU, WDR92 / Fold change vs veh, WDR92 / RFU, CUX1 / Fold change vs veh, CUX1 / RFU, TTC7A / Fold change vs veh, TTC7A / RFU, TMEM135 / Fold change vs veh, TMEM135 / RFU, DEPTOR / Fold change vs veh, DEPTOR / RFU, CPM / Fold change vs veh, CPM / RFU, DNAJB6 / Fold change vs veh, DNAJB6 / RFU, CACNA2D3 / Fold change vs veh, CACNA2D3 / RFU, DTX4 / Fold change vs veh, DTX4 / RFU, TFCP2 / Fold change vs veh, TFCP2 / RFU, GMCL1 /// GMCL1P1 / Fold change vs veh, GMCL1 /// GMCL1P1 / RFU, AEBP2 / Fold change vs veh, AEBP2 / RFU, SNHG1 /// SNORD22 /// SNORD25 /// SNORD26 /// SNORD27 /// SNORD28 /// SNORD29 /// SNORD31 / Fold change vs veh, SNHG1 /// SNORD22 /// SNORD25 /// SNORD26 /// SNORD27 /// SNORD28 /// SNORD29 /// SNORD31 / Fold change (Aza/veh), C12orf56 (ProbeSet 11735607_a_at) / Fold change (ACY-1035/veh), C12orf56 (ProbeSet 11735607_a_at) / Fold change (Aza/veh), FGFR1OP (ProbeSet 11751329_s_at) / Fold change (ACY-1035/veh), FGFR1OP (ProbeSet 11751329_s_at) / Fold change (Aza/veh), VPS36 (ProbeSet 11739960_a_at) / Fold change (ACY-1035/veh), VPS36 (ProbeSet 11739960_a_at) / RFU SYPL1 (11715823_x_at) / Fold change /veh SYPL1 (11715823_x_at) / RFU IGFBP7 (11715501_s_at) / Fold change /veh IGFBP7 (11715501_s_at) / RFU REEP3 (11722064_at) / Fold change /veh REEP3 (11722064_at) / RFU IGLL1 (11728026_x_at) / Fold change /veh IGLL1 (11728026_x_at): dose or concentration left out as unconfirmed
Conditions: MV-4-11 cells, 48 hours

Nc1ncn([C@@H]2O[C@H](CO)[C@@H](O)[C@H]2O)c(=O)n1 [azacitidine]
RFU EBF3 (11725865_a_at): 64.76 RFU
